Reference: PMC3929664, “A Panel of Diverse Assays to Interrogate the Interaction between Glucokinase and Glucokinase Regulatory Protein, Two Vital Proteins in Human Disease” (PLoS ONE, 2014)
Where a name gives a salt, the structure may show the parent alone.

Target: T1, GCK-GKRP interaction (recombinant human GST-GCK and FLAG-GKRP) (Homo sapiens, UniProt P35557+Q14397)
T1 construct: made in house
T1 sequence (P35557 1-465): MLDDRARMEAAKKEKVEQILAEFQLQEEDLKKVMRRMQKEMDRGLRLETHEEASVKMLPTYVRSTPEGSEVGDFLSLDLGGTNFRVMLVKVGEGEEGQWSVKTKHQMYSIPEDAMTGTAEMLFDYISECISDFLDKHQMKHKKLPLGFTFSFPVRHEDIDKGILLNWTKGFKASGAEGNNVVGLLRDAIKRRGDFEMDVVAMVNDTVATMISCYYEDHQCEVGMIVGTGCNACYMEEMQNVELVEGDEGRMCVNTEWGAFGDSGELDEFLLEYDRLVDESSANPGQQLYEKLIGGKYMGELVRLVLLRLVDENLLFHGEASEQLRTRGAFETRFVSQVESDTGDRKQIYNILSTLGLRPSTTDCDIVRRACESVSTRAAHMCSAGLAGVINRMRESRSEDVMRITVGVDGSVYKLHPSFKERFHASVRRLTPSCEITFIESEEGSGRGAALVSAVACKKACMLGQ
T1 sequence (Q14397 1-625): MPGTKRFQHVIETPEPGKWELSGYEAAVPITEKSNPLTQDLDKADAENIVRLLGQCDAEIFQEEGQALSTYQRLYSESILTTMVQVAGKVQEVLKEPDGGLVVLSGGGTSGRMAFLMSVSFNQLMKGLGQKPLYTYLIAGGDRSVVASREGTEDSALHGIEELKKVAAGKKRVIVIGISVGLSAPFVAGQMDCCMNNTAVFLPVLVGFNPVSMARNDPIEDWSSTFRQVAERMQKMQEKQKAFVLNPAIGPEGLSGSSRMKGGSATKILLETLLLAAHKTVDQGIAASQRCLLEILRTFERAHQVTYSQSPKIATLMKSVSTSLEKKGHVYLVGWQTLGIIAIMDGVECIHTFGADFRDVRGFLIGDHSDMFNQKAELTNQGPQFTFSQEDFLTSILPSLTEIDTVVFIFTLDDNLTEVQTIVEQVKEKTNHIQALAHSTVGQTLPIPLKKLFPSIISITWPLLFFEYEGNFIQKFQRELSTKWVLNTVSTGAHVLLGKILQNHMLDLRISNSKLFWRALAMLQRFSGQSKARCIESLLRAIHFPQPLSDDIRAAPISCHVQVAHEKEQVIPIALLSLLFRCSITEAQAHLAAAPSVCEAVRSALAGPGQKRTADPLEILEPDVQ
Test: HTRF assay of the GCK-GKRP protein-protein interaction
Type: binding
Settings: 5 nM GCK, 5 nM GKRP
Description: Homogeneous time-resolved fluorescence (HTRF) technology (Cisbio Bioassays, Bedford, MA, USA) was utilized for antibody-based FRET measurement of the GCK-GKRP protein-protein interaction. Recombinant human GST-GCK and FLAG-GKRP were mixed in an HTRF assay buffer containing 2 mM MgCl2, 25 mM KCl, 25 mM HEPES, 1 mM DTT, 0.1% Tween-20, and 0.025% BSA (all buffer components Sigma-Aldrich). The pH was adjusted to 7.1 by drop-wise addition of 10 N NaOH. […] For assays in 1536-well plate format, the two reaction mixes were dispensed using an Aurora Discovery BioRAPTR Flying Reagent Dispenser (BioRAPTR; Beckman Coulter, Inc., Brea, CA, USA) (3 µl/well for protein-containing buffer; 1 µl/well for detection antibodies) into white 1536-well solid-bottom medium binding plates (Greiner Bio-One, Monroe, NC, USA). […] For the LOPAC^1280 library screen, column 1 was all components with DMSO (maximum signal) and column 3 was no GKRP with DMSO (minimum signal). These two control columns were used for data normalization. The final HTS protocol is in Table S1, and the data have been deposited in PubChem (AID 743207).
S6P, F1P, and glucose were dissolved in water; GKAs were dissolved in DMSO.
The assay was validated using a range (0–150 nM) of GCK and GKRP concentrations at manufacturer-recommended detection antibody concentrations ( Figure 2A ). Fluorescence was measured immediately upon mixing, and every 30 minutes thereafter for a total of 240 minutes. The plate was covered and incubated at room temperature throughout the course of the experiment.
The assay was miniaturized to 1536-well plate format and, concurrently, specificity of detection was validated by using known modulators of the GCK-GKRP interaction.
The EC80 value represents a compromise between the desire for large enough signal enhancement and the need to maintain a binding level that is not too saturated so that it can be outcompeted by compounds of interest. Additionally, this approach enables detection of specific competitors of S6P, which would likely be acting on GKRP as desired, and not on GCK. […] Both glucose and GKAs interfere with the binding of GKRP to GCK and decrease GKRP inhibition, [44], [45], while F1P binds to GKRP and is competitive with respect to S6P [46].

With `Cc1ccc(C(=O)Nc2ccc(S(=O)(=O)O)c3cc(S(=O)(=O)O)cc(S(=O)(=O)O)c23)cc1NC(=O)c1cccc(NC(=O)Nc2cccc(C(=O)Nc3cc(C(=O)Nc4ccc(S(=O)(=O)O)c5cc(S(=O)(=O)O)cc(S(=O)(=O)O)c45)ccc3C)c2)c1` [suramin sodium salt] the LOPAC1280 screen outcome (2 µM S6P) was “inhibitors of the GCK-GKRP interaction”.

`O=P(O)(O)OC[C@@H](O)[C@@H](O)[C@H](O)[C@@H](O)CO` [S6P, sorbitol 6-phosphate] gave an EC80 of 2000 nM and an EC50 (1536-well, mean ± SD, read-out: EC50 (enhancement of HTRF signal)) of 400 ± 80 nM.

With `O=C(O)C1=CC(=C(c2ccc(O)c(C(=O)O)c2)c2ccc(O)c(C(=O)O)c2)C=CC1=O` [ATA, aurintricarboxylic acid] the LOPAC1280 screen outcome (2 µM S6P) was “inhibitors of the GCK-GKRP interaction”.

Compound `O=C(COP(=O)(O)O)[C@@H](O)[C@H](O)[C@H](O)CO` [F1P, fructose 1-phosphate] has an IC50 (2 µM S6P, mean ± SD, read-out: IC50 (inhibition of GCK-GKRP interaction, HTRF signal)) of 70000 ± 5400 nM.
